Measurements: patent publication US20240208992A1, “MACROCYCLES AS CFTR MODULATORS” (Idorsia Pharmaceuticals Ltd, priority 2021, published 2024)

Biological target: human F508del-CFTR (Homo sapiens, UniProt P13569, DEL508-508)
Test: F508del-CFTR cell surface expression (corrector activity), DiscoveRx ß-galactosidase complementation chemiluminescence assay in recombinant U2OS cell line;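 note: U2OS cells co-expressing ProLink-tagged F508del-CFTR and a membrane-anchored enzyme acceptor, where more surface CFTR restores β-galactosidase activity measured by chemiluminescence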
Details: U2OS cell line, 16h compound incubation; for EC50: EC50, F508del-CFTR cell surface expression, geomean values; for Emax: U2OS, in relation to the Emax of the corrector lumacaftor (=100%), arithmetic mean values

human F508del-CFTR, sequence (P13569 with tags, fused parts or gaps DEL508-508): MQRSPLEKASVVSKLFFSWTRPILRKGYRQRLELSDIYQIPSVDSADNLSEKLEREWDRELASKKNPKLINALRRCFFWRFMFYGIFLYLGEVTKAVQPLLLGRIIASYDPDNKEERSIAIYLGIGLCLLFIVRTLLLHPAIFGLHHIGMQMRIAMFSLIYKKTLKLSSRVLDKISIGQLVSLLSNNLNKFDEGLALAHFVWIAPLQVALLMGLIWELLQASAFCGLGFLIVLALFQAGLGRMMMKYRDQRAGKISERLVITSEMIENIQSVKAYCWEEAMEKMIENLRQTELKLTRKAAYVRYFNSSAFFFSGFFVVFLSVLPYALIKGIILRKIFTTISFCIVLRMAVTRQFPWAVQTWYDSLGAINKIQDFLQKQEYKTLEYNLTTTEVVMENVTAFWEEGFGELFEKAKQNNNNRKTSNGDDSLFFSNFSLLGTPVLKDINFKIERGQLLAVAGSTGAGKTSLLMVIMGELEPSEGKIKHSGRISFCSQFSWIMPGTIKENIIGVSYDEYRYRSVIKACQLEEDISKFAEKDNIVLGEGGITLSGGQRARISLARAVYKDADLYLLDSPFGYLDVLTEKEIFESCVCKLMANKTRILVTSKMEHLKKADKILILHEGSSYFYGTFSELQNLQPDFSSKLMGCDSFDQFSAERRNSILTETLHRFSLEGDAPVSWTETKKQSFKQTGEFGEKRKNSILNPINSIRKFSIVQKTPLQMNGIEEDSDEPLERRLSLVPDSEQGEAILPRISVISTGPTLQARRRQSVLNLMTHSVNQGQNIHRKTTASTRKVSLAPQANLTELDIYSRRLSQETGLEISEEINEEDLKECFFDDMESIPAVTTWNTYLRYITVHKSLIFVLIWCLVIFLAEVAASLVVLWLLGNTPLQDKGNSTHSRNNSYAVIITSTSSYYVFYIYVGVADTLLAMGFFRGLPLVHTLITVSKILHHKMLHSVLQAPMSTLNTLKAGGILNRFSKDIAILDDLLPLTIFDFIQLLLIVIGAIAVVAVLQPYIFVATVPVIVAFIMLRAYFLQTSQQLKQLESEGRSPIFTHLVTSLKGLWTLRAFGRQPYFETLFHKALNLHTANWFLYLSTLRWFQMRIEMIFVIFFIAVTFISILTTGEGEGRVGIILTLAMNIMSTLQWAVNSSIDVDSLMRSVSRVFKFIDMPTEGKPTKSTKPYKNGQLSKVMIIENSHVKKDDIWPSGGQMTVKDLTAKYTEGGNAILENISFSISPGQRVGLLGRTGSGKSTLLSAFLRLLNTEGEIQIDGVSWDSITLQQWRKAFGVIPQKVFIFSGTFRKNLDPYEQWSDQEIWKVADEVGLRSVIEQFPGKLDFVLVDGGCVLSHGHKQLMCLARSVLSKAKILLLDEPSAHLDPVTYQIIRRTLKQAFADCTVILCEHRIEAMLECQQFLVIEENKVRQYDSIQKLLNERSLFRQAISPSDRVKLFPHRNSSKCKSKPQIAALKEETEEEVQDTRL

Compound	EC50	Emax
COc1cccc(CCNC(=O)[C@@H]2CC(=O)N(C)[C@@H](CC(C)C)C(=O)N3CCN(C4CC4)C[C@H]3C(=O)N[C@H](Cc3ccccc3)COc3ccc4ccccc4c3C(=O)N2)c1 [Example 357, (4aS,7R,18S,22S)-7-benzyl-3-cyclopropyl-22-isobutyl-N-(3-methoxyphenethyl)-21-methyl-5,16,20,23-tetraoxo-2,3,4,4a,5,6,7,8,16,17,18,19,20,21,22,23-hexadecahydro-1H-naphtho[1,2-p]pyrazino[2,1-f][1]oxa[4,7,10,14]tetraazacycloheptadecine-18-carboxamide]	475 nM	124%
CN1C(=O)C[C@@H](C(=O)NCCc2ccc3c(c2)OCO3)NC(=O)c2c(ccc3ccccc23)OC[C@@H](Cc2ccccc2)NC(=O)CN(CC[C@@H]2CCCCO2)C(=O)[C@@H]1CC1CC1 [Example 358, (3S,7S,13R)-N-(2-(benzo[d][1,3]dioxol-5-yl)ethyl)-13-benzyl-7-(cyclopropylmethyl)-6-methyl-1,5,8,11-tetraoxo-9-(2-((S)-tetrahydro-2H-pyran-2-yl)ethyl)-1,2,3,4,5,6,7,8,9,10,11,12,13,14-tetradecahydronaphtho[1,2-p][1]oxa[4,7,10,14]tetraazacycloheptadecine-3-carboxamide]	411 nM	171%
CN1C(=O)C[C@@H](C(=O)NCCc2ccc3c(c2)OCO3)NC(=O)c2c(ccc3ccccc23)OC[C@@H](Cc2ccccc2)NC(=O)CN(CC[C@H]2CCCCO2)C(=O)[C@@H]1CC1CC1 [Example 359, (3S,7S,13R)-N-(2-(benzo[d][1,3]dioxol-5-yl)ethyl)-13-benzyl-7-(cyclopropylmethyl)-6-methyl-1,5,8,11-tetraoxo-9-(2-((R)-tetrahydro-2H-pyran-2-yl)ethyl)-1,2,3,4,5,6,7,8,9,10,11,12,13,14-tetradecahydronaphtho[1,2-p][1]oxa[4,7,10,14]tetraazacycloheptadecine-3-carboxamide]	318 nM	144%
CN1C(=O)C[C@@H](C(=O)NCCc2ccc3c(c2)OCO3)NC(=O)c2c(ccc3ccccc23)OC[C@@H](Cc2ccccc2)NC(=O)CN(CC[C@@H]2CCCCO2)C(=O)[C@@H]1CC1CCC1 [Example 360, (3S,7S,13R)-N-(2-(benzo[d][1,3]dioxol-5-yl)ethyl)-13-benzyl-7-(cyclobutylmethyl)-6-methyl-1,5,8,11-tetraoxo-9-(2-((S)-tetrahydro-2H-pyran-2-yl)ethyl)-1,2,3,4,5,6,7,8,9,10,11,12,13,14-tetradecahydronaphtho[1,2-p][1]oxa[4,7,10,14]tetraazacycloheptadecine-3-carboxamide]	184 nM	224%
CN1C(=O)C[C@@H](C(=O)NCCc2ccc3c(c2)OCO3)NC(=O)c2c(ccc3ccccc23)OC[C@@H](Cc2ccccc2)NC(=O)CN(CC[C@H]2CCCCO2)C(=O)[C@@H]1CC1CCC1 [Example 361, (3S,7S,13R)-N-(2-(benzo[d][1,3]dioxol-5-yl)ethyl)-13-benzyl-7-(cyclobutylmethyl)-6-methyl-1,5,8,11-tetraoxo-9-(2-((R)-tetrahydro-2H-pyran-2-yl)ethyl)-1,2,3,4,5,6,7,8,9,10,11,12,13,14-tetradecahydronaphtho[1,2-p][1]oxa[4,7,10,14]tetraazacycloheptadecine-3-carboxamide]	264 nM	183%
CC(C)C[C@H]1C(=O)N(CC[C@@H]2CCCCO2)CC(=O)N[C@H](Cc2ccccc2)COc2ccc3ccccc3c2C(=O)N[C@H](C(=O)NCCc2ccc3c(c2)OCO3)CC(=O)N1C [Example 362, (3S,7S,13R)-N-(2-(benzo[d][1,3]dioxol-5-yl)ethyl)-13-benzyl-7-isobutyl-6-methyl-1,5,8,11-tetraoxo-9-(2-((S)-tetrahydro-2H-pyran-2-yl)ethyl)-1,2,3,4,5,6,7,8,9,10,11,12,13,14-tetradecahydronaphtho[1,2-p][1]oxa[4,7,10,14]tetraazacycloheptadecine-3-carboxamide]	153 nM	247%
CC(C)C[C@H]1C(=O)N(CC[C@H]2CCCCO2)CC(=O)N[C@H](Cc2ccccc2)COc2ccc3ccccc3c2C(=O)N[C@H](C(=O)NCCc2ccc3c(c2)OCO3)CC(=O)N1C [Example 363]	252 nM	230%
COc1cccc(CCNC(=O)[C@@H]2CC(=O)N(C)[C@@H](CC(C)C)C(=O)N3CCN(CC(C)C)C[C@@H]3C(=O)N[C@H](Cc3ccccc3)COc3ccc4ncn(C)c4c3C(=O)N2)c1 [Example 364, (8S,12S,18aR,21R)-21-benzyl-12,17-diisobutyl-N-(3-methoxyphenethyl)-5,11-dimethyl-6,10,13,19-tetraoxo-6,7,8,9,10,11,12,13,16,17,18,18a,19,20,21,22-hexadecahydro-5H,15H-imidazo[4′,5′:5,6]benzo[1,2-p]pyrazino[2,1-f][1]oxa[4,7,10,14]tetraazacycloheptadecine-8-carboxamide]	264 nM	201%
COc1cccc(CCNC(=O)[C@@H]2CC(=O)N(C)[C@@H](CC(C)C)C(=O)N3CCCC[C@@H]3C(=O)N[C@H](Cc3ccccc3)COc3cnc4ccccc4c3C(=O)N2)c1 [Example 365, (9S,13S,19aR,22R)-22-benzyl-13-isobutyl-N-(3-methoxyphenethyl)-12-methyl-7,11,14,20-tetraoxo-7,8,9,10,11,12,13,14,17,18,19,19a,20,21,22,23-hexadecahydro-16H-pyrido[2′,1′:6,7][1]oxa[4,7,10,14]tetraazacycloheptadecino[17,16-c]quinoline-9-carboxamide]	398 nM	387%
COc1cccc(CCNC(=O)[C@@H]2CC(=O)N(C)[C@@H](CC(C)C)C(=O)N3CCCC[C@H]3C(=O)N[C@H](Cc3ccccc3)COc3cnc4ccccc4c3C(=O)N2)c1 [Example 366, (9S,13S,19aS,22R)-22-benzyl-13-isobutyl-N-(3-methoxyphenethyl)-12-methyl-7,11,14,20-tetraoxo-7,8,9,10,11,12,13,14,17,18,19,19a,20,21,22,23-hexadecahydro-16H-pyrido[2′,1′:6,7][1]oxa[4,7,10,14]tetraazacycloheptadecino[17,16-c]quinoline-9-carboxamide]	265 nM	172%
Cc1cc(CCNC(=O)[C@@H]2CC(=O)N(C)[C@@H](CC(C)C)C(=O)N3CCCC[C@@H]3C(=O)N[C@H](Cc3ccccc3)COc3cnc4ccccc4c3C(=O)N2)on1 [Example 367, (9S,13S,19aR,22R)-22-benzyl-13-isobutyl-12-methyl-N-(2-(3-methylisoxazol-5-yl)ethyl)-7,11,14,20-tetraoxo-7,8,9,10,11,12,13,14,17,18,19,19a,20,21,22,23-hexadecahydro-16H-pyrido[2′,1′:6,7][1]oxa[4,7,10,14]tetraazacycloheptadecino[17,16-c]quinoline-9-carboxamide]	249 nM	321%
COc1cc(CCNC(=O)[C@@H]2CC(=O)N(C)[C@@H](CC(C)C)C(=O)N3CCCC[C@@H]3C(=O)N[C@H](Cc3ccccc3)COc3ccc4oc(C)nc4c3C(=O)N2)cc(OC)c1 [Example 368, (8S,12S,18aR,21R)-21-benzyl-N-(3,5-dimethoxyphenethyl)-12-isobutyl-4,11-dimethyl-6,10,13,19-tetraoxo-6,7,8,9,10,11,12,13,16,17,18,18a,19,20,21,22-hexadecahydro-15H-oxazolo[5′,4′:5,6]benzo[1,2-p]pyrido[2,1-f][1]oxa[4,7,10,14]tetraazacycloheptadecine-8-carboxamide]	918 nM	147%
COc1cccc(CCNC(=O)[C@@H]2CC(=O)N(C)[C@@H](CC(C)C)C(=O)N3CCN(C(=O)OCC(Cl)(Cl)Cl)C[C@@H]3C(=O)N[C@H](Cc3ccccc3)COc3ccc4ccccc4c3C(=O)N2)c1 [Example 369, 2,2,2-trichloroethyl (4aR,7R,18S,22S)-7-benzyl-22-isobutyl-18-((3-methoxyphenethyl)carbamoyl)-21-methyl-5,16,20,23-tetraoxo-1,2,4,4a,5,6,7,8,16,17,18,19,20,21,22,23-hexadecahydro-3H-naphtho[1,2-p]pyrazino[2,1-f][1]oxa[4,7,10,14]tetraazacycloheptadecine-3-carboxylate]	107 nM	243%
CC(C)C[C@H]1C(=O)N2CCOC[C@@H]2C(=O)N[C@H](Cc2ccccc2)COc2ccc3ccccc3c2C(=O)N[C@H](C(=O)NCCc2nc3c(s2)CCC3)CC(=O)N1C [Example 370, (4aR,7R,18S,22S)-7-benzyl-N-(2-(5,6-dihydro-4H-cyclopenta[d]thiazol-2-yl)ethyl)-22-isobutyl-21-methyl-5,16,20,23-tetraoxo-1,2,4,4a,5,6,7,8,16,17,18,19,20,21,22,23-hexadecahydronaphtho[1,2-p][1,4]oxazino[3,4-f][1]oxa[4,7,10,14]tetraazacycloheptadecine-18-carboxamide]	388 nM	229%
CC(C)C[C@H]1C(=O)N2CCOC[C@@H]2C(=O)N[C@H](Cc2ccccc2)COc2ccc3ccccc3c2C(=O)N[C@H](C(=O)NCCc2cccc(OC(F)F)c2)CC(=O)N1C [Example 371, (4aR,7R,18S,22S)-7-benzyl-N-(3-(difluoromethoxy)phenethyl)-22-isobutyl-21-methyl-5,16,20,23-tetraoxo-1,2,4,4a,5,6,7,8,16,17,18,19,20,21,22,23-hexadecahydronaphtho[1,2-p][1,4]oxazino[3,4-f][1]oxa[4,7,10,14]tetraazacycloheptadecine-18-carboxamide]	226 nM	180%
COc1cccc(CCNC(=O)[C@@H]2CC(=O)N(C)[C@@H](CC(C)C)C(=O)N3CCN(CC(C)C)C[C@@H]3C(=O)N[C@H](Cc3ccccc3)COc3cnc4ccccc4c3C(=O)N2)c1 [Example 372, (9S,13S,19aR,22R)-22-benzyl-13,18-diisobutyl-N-(3-methoxyphenethyl)-12-methyl-7,11,14,20-tetraoxo-7,8,9,10,11,12,13,14,17,18,19,19a,20,21,22,23-hexadecahydro-16H-pyrazino[2′,11:6,7][1]oxa[4,7,10,14]tetraazacycloheptadecino[17,16-c]quinoline-9-carboxamide]	72 nM	360%
